Source: article PMC7536072, “Molecular and functional characterization of somatostatin-type signalling in a deuterostome invertebrate” (Open Biology, 2020)
“Also recorded” adds a separate entry of the source. Like-named read-outs stand apart in the source and are kept apart here. Bridges are numbered along the chain shown (N, C = ends). Where no end group is shown, it is not given here.

Experiments:
[1] = tested on: cardiac stomach preparations from A. rubens; test: in vitro relaxation of cardiac stomach preparations; set-up: species or system Asterias rubens; settings: n = 6
Procedure: Synthetic ArSS2 ([…], with a disulfide bridge between the cysteine residues) was custom synthesized (Peptide Protein Research Ltd, Fareham, UK) to enable testing of its pharmacological effects on in vitro preparations of organs/muscles from A. rubens. ArSS2 was tested for its in vitro effects on the contractility of tube foot, apical muscle and cardiac stomach preparations from at least six different specimens of A. rubens. Individual tube foot preparations were dissected from starfish arms with their corresponding ampulla intact. Then cotton ligatures were tied around the ambulacral body wall and the tube foot disc and then the external epithelium of the tube foot was scraped off using a blunt scalpel blade to facilitate penetration of peptides when tested in vitro, as described previously. Apical muscle preparations were dissected from the aboral body wall with approximately 1 cm strips of apical muscle tied at each end with cotton ligatures. Cardiac stomach preparations were dissected as described previously and then were tied at the aboral side of the cardiac stomach and around the oesophagus with cotton ligatures. The dissected preparations were tied to a fixed metal hook orally and to a high-grade isotonic transducer (MLT0015; ADInstruments Ltd; Oxford, UK) aborally, suspended in a 20 ml aerated organ bath containing artificial seawater at approximately 11°C. The transducer was connected via a bridge amplifier (FE221 Bridge Amp, ADInstruments Ltd, Oxford, UK) to data acquisition hardware (PowerLab 2/36, ADInstruments Ltd, Oxford, UK). Data collected from PowerLab were visualized as traces and analysed using LabChart (v. 8.0.7) software installed on a laptop computer (Lenovo E540, Windows 7 Professional).
To examine the effects of ArSS2 on tube foot and cardiac stomach preparations, 10^−6 M acetylcholine (ACh) or artificial seawater (ASW) containing 30 mM added KCl was used to induce contraction of these preparations, respectively. Once a stable baseline contracted state was achieved, synthetic ArSS2 was added into the organ bath to sequentially achieve final concentrations in the range of 10^−10 to 10^−6 M. For these experiments, the contracting effect of 10^−6 M ACh or ASW containing 30 mM added KCl was defined as 100% and the relaxing effects of ArSS2 were then calculated as a percentage reversal of the 100% contracted state.
Experiments were performed where the effects of ArSS2, S2 and asterotocin (at 10^−7 and 10^−6 M) on cardiac stomach preparations (n = 6) were compared. For these experiments, the effect of 10^−7 or 10^−6 M S2 was defined as 100% and the effect of asterotocin or ArSS2 was calculated as a % of the effect of S2. To determine if there were significant differences in magnitude of the relaxing effects of the three peptides on cardiac stomach preparations, data were analysed statistically using a two-tailed Student's t-test in Prism 6.

[2] = tested on: cardiac stomach of A. rubens; settings: cited from earlier work
Source text: When starfish (A. rubens) feed, the cardiac stomach is relaxed and everted out of the mouth over the digestible soft tissues of prey (e.g. mussels). […] Therefore, because ArSS2 causes relaxation of cardiac stomach preparations in vitro, we investigated if ArSS2 also triggers cardiac stomach eversion when injected in vivo. Firstly, 15 medium-sized starfish were starved for one week to norm ... || Asterias rubens feeds by everting its cardiac stomach through a narrow oral opening (mouth) and over the digestible parts of its prey, and for this to be accomplished, the cardiac stomach must be in a relaxed state. Neuropeptides that cause cardiac stomach in vitro are therefore potential mediators of cardiac stomach eversion in vivo. […] Therefore, here we investigated if ArSS2 also triggers cardiac stomach ever ... || The in vitro relaxing effect of ArSS2 on the cardiac stomach of A. rubens is of interest from a physiological/behavioural perspective because relaxation of the cardiac stomach is required for the extraoral feeding behaviour of starfish where it is everted out of the mouth and over the digestible soft tissue of prey such as mussels.

[3] = tested on: cardiac stomach of A. rubens; test: in vivo cardiac stomach eversion after injection into the perivisceral coelom; set-up: species or system Asterias rubens; settings: 10 µl 10^−3 M into perivisceral coelom, n = 10
Procedure: When starfish (A. rubens) feed, the cardiac stomach is relaxed and everted out of the mouth over the digestible soft tissues of prey (e.g. mussels). […] Therefore, because ArSS2 causes relaxation of cardiac stomach preparations in vitro, we investigated if ArSS2 also triggers cardiac stomach eversion when injected in vivo. Firstly, 15 medium-sized starfish were starved for one week to normalize their physiological status. A Hamilton […] 50 μl syringe (Sigma-Aldrich; Gillingham, UK) was used to inject 10 μl 1 mM ArSS2, or 10 μl 1 mM asterotocin (positive control) or 10 μl water (negative control) into the […] coelom of starfish. ArSS2 was tested on five individuals firstly and then the next day, asterotocin was tested on the same batch of five individuals. For another five individuals, asterotocin was tested first and then ArSS2 was tested on the following day. The remaining five individuals were injected with water as a control. Thus, both ArSS2 and asterotocin were tested on ten starfish. For each starfish, the test agent was injected via two sites in the dorsal body wall of the arms proximal to the junctions with the central disc region. Care was taken to inject test agents into the […] coelom and not into the cardiac stomach.

[4] = tested on: cardiac stomach preparations from A. rubens; settings: cited from earlier work; for cardiac stomach relaxant activity: ref [64],[67]
Source text: Likewise, ArSS2 caused dose-dependent relaxation of cardiac stomach preparations at concentrations between ... || ArSS2 is widely expressed in the digestive system of A. rubens, including the peristomial membrane, cardiac stomach, pyloric stomach, pyloric duct, and pyloric caeca. In the cardiac stomach, ArSSP2 transcripts are detected in cells located in the mucosa layer and ArSS2-immunoreactivity is present in the adjacent basi-epithelial nerve plexus. Consistent with this expression of ArSS2 in the cardiac stomach, ArSS2 causes dose-dependent relaxation of cardiac stomach preparations.

[5] = tested on: apical muscle preparations from A. rubens; settings: ref [67]; cited from earlier work
[6] = tested on: tube foot preparations from A. rubens; settings: ref [67]; cited from earlier work
ArSSR1 = test: GFP-aequorin luminescence receptor activation assay, CHO-K1 cells, ArSSR1 + Gα16; format: cell-based, Asterias rubens; settings: ArSSR1
ArSSR3 = test: GFP-aequorin luminescence receptor activation assay, CHO-K1 cells, ArSSR3 + Gα16; format: cell-based, Asterias rubens; settings: ArSSR3
[7] = tested on: CHO-K1 cells transfected with an empty pcDNA3.1(+) vector; test: luminescence control assay, CHO-K1 cells transfected with empty vector; format: cell-based, Chinese hamster; settings: 10^-12 to 10^-5 M (figure S12), 0.1 % Triton X-100 = 100%
Procedure: In order to characterize the candidate SS-type receptors, a G-protein-dependent receptor activation assay was employed. Chinese hamster ovary (CHO)-K1 cells stably overexpressing the calcium-sensitive bioluminescent reporter GFP-aequorin fusion protein (G5A) were used as a heterologous expression system. Plasmids containing A. rubens SS-type receptor cDNAs were co-transfected with the promiscuous human Gα16, which is widely used for receptor deorphanization assays. […] After 3 h incubation, a fixed volume of cells was injected sequentially into each well containing different concentrations of peptides using a FLUOstar Omega Plate Reader (BMG LABTECH, Ortenberg, Germany). Luminescence values were recorded over a 35 s period after injection. The total luminescence of each well over the 35 s period was calculated and normalized to the maximum value obtained in each experiment (100% activation) and to the value obtained with the vehicle media (0% activation). […] EC50 values were calculated from dose–response curves using Prism 6. The luminescence responses triggered by 10^−5 M ArSS1, 10^−5 M ArSS2 and vehicle media were analysed by one-way ANOVA using Bonferroni's multiple comparisons post hoc test in Prism 6. […]

ArSSR2 = test: GFP-aequorin luminescence receptor activation assay, CHO-K1 cells, ArSSR2 + Gα16; format: cell-based, Asterias rubens; settings: ArSSR2
[8] = injected in vivo, ref [66],[67]
[9] = 10^−5 M, vs BSA media (control) and, for ArSS2, vs ArSS1, one-way ANOVA, Bonferroni

ArSSR3, sequence (as listed by the source): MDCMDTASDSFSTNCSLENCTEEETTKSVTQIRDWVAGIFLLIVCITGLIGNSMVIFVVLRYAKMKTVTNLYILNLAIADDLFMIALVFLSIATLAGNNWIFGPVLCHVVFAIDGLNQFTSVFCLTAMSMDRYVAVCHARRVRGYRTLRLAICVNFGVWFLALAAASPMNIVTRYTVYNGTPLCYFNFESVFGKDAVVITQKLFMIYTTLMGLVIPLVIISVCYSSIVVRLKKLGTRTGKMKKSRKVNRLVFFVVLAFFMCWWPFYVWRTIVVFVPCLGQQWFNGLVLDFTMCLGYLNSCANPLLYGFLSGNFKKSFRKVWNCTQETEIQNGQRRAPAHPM

## CLVQDCPEG-NH2 (disulfide 1-6 (inferred)) [asterotocin, reference compound]
[1]; 10^−6 M, two-tailed Student's t-test p = 0.0255
  relaxing effect compared with S2: significantly larger than the effect S2
[1]; 10^−6 M, two-tailed Student's t-test p = 0.0483
  relaxing effect compared with ArSS2: significantly larger
[1]; 10^−7 M, KCl-contracted, mean
  magnitude of cardiac stomach relaxing action relative to S2: 3.5 times the effect of S2
[1]; 10^−7 M, two-tailed Student's t-test p = 0.0055
  relaxing effect compared with S2: significantly larger than the effect of S2
[1]; 10^−7 M, two-tailed Student's t-test p = 0.0250
  relaxing effect compared with ArSS2: significantly larger
[2]; 100 µl 10^−3 M into perivisceral coelom, ref [67]
  cardiac stomach eversion: complete eversion of the cardiac stomach
[2]; [8]
  cardiac stomach eversion: induce cardiac stomach eversion when injected in vivo
[2]; ref [67]
  effectiveness and potency in triggering cardiac stomach eversion compared with S2: much more effective and potent than S2
[3]; 10 min recording
  mean maximal eversion, area of everted cardiac stomach: ~125 % of the area of the central disc region
[3]
  incidence of cardiac stomach eversion: all of the animals
  time of mean maximal eversion after injection: approximately 9 min
[4]
  cardiac stomach relaxant activity: act as cardiac stomach relaxants
[4]; ref [67]
  effectiveness as cardiac stomach relaxant compared with S2: much more effective as a cardiac stomach relaxant than S2
  relaxation of cardiac stomach preparations: caused relaxation of cardiac stomach and apical muscle preparations but not tube feet
[5]
  relaxation of apical muscle preparations: caused relaxation of cardiac stomach and apical muscle preparations but not tube feet
[6]
  relaxation of tube foot preparations: caused relaxation of cardiac stomach and apical muscle preparations but not tube feet

## KCIGRFQPFSMPC (disulfide 2-13 (inferred)) [ArSS1, 13-residue SS-type neuropeptide of Asterias rubens derived from ArSSP1 (…)]
ArSSR1; [9]
  luminescence compared with control: not significantly different
ArSSR1; 10^−21 to 10^−4 M
  triggering of luminescence: did not trigger luminescence
ArSSR3; [9]
  luminescence compared with control: not significantly different
ArSSR3; 10^−21 to 10^−4 M
  triggering of luminescence: did not trigger luminescence
[7]
  luminescence response in cells with empty vector: do not trigger luminscence; also recorded: Neither ArSS1 nor ArSS2 elicited responses
ArSSR2; [9]
  luminescence compared with control: not significantly different
ArSSR2; 10^−21 to 10^−4 M
  triggering of luminescence: did not trigger luminescence

## SGPYSFNSGLTF-NH2 [S2, SALMFamide neuropeptide S2 (…-NH2)]
[1]; 10^−6 M, KCl-contracted, mean
  magnitude of cardiac stomach relaxing action relative to asterotocin: approximately 50 % of the effect of asterotocin
[2]; [8]
  cardiac stomach eversion: induce cardiac stomach eversion when injected in vivo
[4]
  cardiac stomach relaxant activity: act as cardiac stomach relaxants
[4]; tube foot and/or cardiac stomach, ref [64],[66]
  relaxation of tube foot and/or cardiac stomach preparations: cause relaxation of tube foot and/or cardiac stomach preparations
